Tested on: MV-4-11 cells
Assay: Gene expression microarray analysis (Affymetrix PrimeView) and GSEA
Assay type: cell-based, human
Set-up: RFU PODN (11730768_x_at) / Fold change /veh PODN (11730768_x_at) / RFU LINC00158 (11744669_a_at) / Fold change /veh LINC00158 (11744669_a_at) / RFU DUSP10 (11751237_a_at) / Fold change /veh DUSP10 (11751237_a_at) / RFU ID3 (11757404_x_at) / Fold change /veh ID3 (11757404_x_at) / RFU PLEKHG5 (11737974_s_at) / Fold change /veh PLEKHG5 (11737974_s_at) / RFU LRRC4B (11730491_at) / Fold change /veh LRRC4B (11730491_at) / RFU GIMAP4 (11747438_a_at) / Fold change /veh GIMAP4 (11747438_a_at) / RFU KRT8 (11758183_x_at) / Fold change /veh KRT8 (11758183_x_at) / RFU CNN1 (11734310_a_at) / Fold change /veh CNN1 (11734310_a_at) / RFU VPS37D (11726825_at) / Fold change /veh VPS37D (11726825_at) / RFU C10orf10 (11716522_x_at) / Fold change /veh C10orf10 (11716522_x_at) / RFU KIR2DL2 /// KIR2DL4 /// KIR2DL5A /// KIR2DL5B /// KIR2DS1 /// KIR2DS2 /// KIR2DS3 /// KIR2DS4 /// KIR3DL3 /// KIR3DL3 /// KIR3DS1 (11738374_at) / Fold change /veh KIR2DL2 /// KIR2DL4 /// KIR2DL5A /// KIR2DL5B /// KIR2DS1 /// KIR2DS2 /// KIR2DS3 /// KIR2DS4 /// KIR3DL3 /// KIR3DL3 /// KIR3DS1 (11738374_at) / RFU C1QL1 (11718748_at) / Fold change /veh C1QL1 (11718748_at) / RFU TMPRSS4 (11747572_a_at) / Fold change /veh TMPRSS4 (11747572_a_at) / RFU HAMP (11756126_x_at) / Fold change /veh HAMP (11756126_x_at) / RFU RNFT2 (11725882_a_at) / Fold change /veh RNFT2 (11725882_a_at) / RFU NR4A2 (11747474_a_at) / Fold change /veh NR4A2 (11747474_a_at) / RFU ABCC12 (11746883_a_at) / Fold change /veh ABCC12 (11746883_a_at) / RFU TMEM136 (11760407_x_at) / Fold change /veh TMEM136 (11760407_x_at) / RFU CLDN22 /// WWC2 (11732394_at) / Fold change /veh CLDN22 /// WWC2 (11732394_at) / RFU HLA-DPB1 (11760878_x_at) / Fold change /veh HLA-DPB1 (11760878_x_at) / RFU SPINT1 (11716480_a_at) / Fold change /veh SPINT1 (11716480_a_at) / RFU GAP43 (11754022_s_at) / Fold change /veh GAP43 (11754022_s_at) / RFU A4GNT (11735810_at) / Fold change /veh A4GNT (11735810_at) / RFU PRB3 (11715151_x_at) / Fold change /veh PRB3 (11715151_x_at) / RFU TUBB4B (11761932_at) / Fold change /veh TUBB4B (11761932_at) / RFU CAPN14 (11732068_a_at) / Fold change /veh CAPN14 (11732068_a_at) / RFU TMCC2 (11721928_a_at) / Fold change /veh TMCC2 (11721928_a_at) / RFU IRGQ (11745062_a_at) / Fold change /veh IRGQ (11745062_a_at) / RFU FAM174B (11720279_a_at) / Fold change /veh FAM174B (11720279_a_at) / RFU TMPRSS4 (11748680_a_at) / Fold change /veh TMPRSS4 (11748680_a_at) / RFU FAM212B (11763350_a_at) / Fold change /veh FAM212B (11763350_a_at) / RFU PLEKHG5 (11743358_a_at) / Fold change /veh PLEKHG5 (11743358_a_at) / RFU ZSCAN30 (11745921_a_at) / Fold change /veh ZSCAN30 (11745921_a_at) / RFU CMKLR1 (11741424_a_at) / Fold change /veh CMKLR1 (11741424_a_at) / RFU LOC101060620 /// MAPK8IP1 (11723275_at) / Fold change /veh LOC101060620 /// MAPK8IP1 (11723275_at) / RFU SPTSSB (11747773_x_at) / Fold change /veh SPTSSB (11747773_x_at) / RFU PRSS12 (11739890_at) / Fold change /veh PRSS12 (11739890_at) / RFU BIN1 (11741810_x_at) / Fold change /veh BIN1 (11741810_x_at) / RFU WNT11 (11732464_a_at) / Fold change /veh WNT11 (11732464_a_at) / RFU C10orf10 (11716521_a_at) / Fold change /veh C10orf10 (11716521_a_at) / RFU C5orf56 (11738089_at) / Fold change /veh C5orf56 (11738089_at) / RFU CYB561 (11721691_x_at) / Fold change /veh CYB561 (11721691_x_at) / RFU ANKRD19P (11752326_a_at) / Fold change /veh ANKRD19P (11752326_a_at) / RFU OR2T12 /// OR2T33 /// OR2T8 (11738714_s_at) / Fold change /veh OR2T12 /// OR2T33 /// OR2T8 (11738714_s_at) / RFU VCAN (11748164_a_at) / Fold change /veh VCAN (11748164_a_at) / RFU JSRP1 (11732532_at) / Fold change /veh JSRP1 (11732532_at) / RFU KRTAP10-11 (11738290_x_at) / Fold change /veh KRTAP10-11 (11738290_x_at) / RFU MYO3A (11730013_a_at) / Fold change /veh MYO3A (11730013_a_at) / RFU EBF3 (11725865_a_at) / Fold change /veh EBF3 (11725865_a_at) / RFU CAMK2N1 (11719241_x_at) / Fold change /veh CAMK2N1 (11719241_x_at) / RFU C5orf56 (11738088_a_at) / Fold change /veh C5orf56 (11738088_a_at) / RFU OLFML3 (11715873_a_at) / Fold change /veh OLFML3 (11715873_a_at) / RFU LOC100653217 /// NTM (11731650_a_at) / Fold change /veh LOC100653217 /// NTM (11731650_a_at) / RFU MAPK11 (11762145_a_at) / Fold change /veh MAPK11 (11762145_a_at) / RFU FIZ1 (11724087_x_at) / Fold change /veh FIZ1 (11724087_x_at) / RFU OASL (11726364_x_at) / Fold change /veh OASL (11726364_x_at) / RFU SOX15 (11748057_x_at) / Fold change /veh SOX15 (11748057_x_at) / RFU CD79A (11719716_a_at) / Fold change /veh CD79A (11719716_a_at) / RFU HIST1H1D (11736915_at) / Fold change /veh HIST1H1D (11736915_at) / RFU CASKIN2 (11723855_a_at) / Fold change /veh CASKIN2 (11723855_a_at) / RFU LOC730098 (11760151_x_at) / Fold change /veh LOC730098 (11760151_x_at) / RFU OR4N2 (11742367_at) / Fold change /veh OR4N2 (11742367_at) / RFU PRRT2 (11749266_a_at) / Fold change /veh PRRT2 (11749266_a_at) / RFU SNX32 (11753110_a_at) / Fold change /veh SNX32 (11753110_a_at) / RFU CDHR5 (11726645_a_at) / Fold change /veh CDHR5 (11726645_a_at) / RFU RCAN1 (11760418_a_at) / Fold change /veh RCAN1 (11760418_a_at) / RFU FAM167A (11723789_a_at) / Fold change /veh FAM167A (11723789_a_at) / RFU FAM26E (11764081_at) / Fold change /veh FAM26E (11764081_at) / RFU ISYNA1 (11749810_s_at) / Fold change /veh ISYNA1 (11749810_s_at) / RFU ACY1 (11761880_at) / Fold change /veh ACY1 (11761880_at) / RFU 11764098_at / Fold change /veh 11764098_at / RFU SAMD14 (11745864_x_at) / Fold change /veh SAMD14 (11745864_x_at) / RFU NPB (11741838_a_at) / Fold change /veh NPB (11741838_a_at) / RFU TMPRSS6 (11731388_a_at) / Fold change /veh TMPRSS6 (11731388_a_at) / RFU KRTAP10-2 (11738614_at) / Fold change /veh KRTAP10-2 (11738614_at) / RFU ARHGAP8 /// PRR5-ARHGAP8 (11727945_x_at) / Fold change /veh ARHGAP8 /// PRR5-ARHGAP8 (11727945_x_at) / RFU KRTAP5-7 /// NADSYN1 (11734609_at) / Fold change /veh KRTAP5-7 /// NADSYN1 (11734609_at) / RFU RASL12 (11751679_a_at) / Fold change /veh RASL12 (11751679_a_at) / RFU CDKN2B (11736163_a_at) / Fold change /veh CDKN2B (11736163_a_at) / RFU PRF1 (11729649_at) / Fold change /veh PRF1 (11729649_at) / RFU, ZNF638 /// ZNF638-IT1 / Fold change vs veh, ZNF638 /// ZNF638-IT1 / RFU, PANK3 / Fold change vs veh, PANK3 / RFU, SH3YL1 / Fold change vs veh, SH3YL1 / RFU, ZEB2 / Fold change vs veh, ZEB2 / RFU, NRIP1 / Fold change vs veh, NRIP1 / RFU, PTTG1IP / Fold change vs veh, PTTG1IP / RFU, CAPN2 / Fold change vs veh, CAPN2 / RFU, MED14 / Fold change vs veh, MED14 / RFU, SNORA58 / Fold change vs veh, SNORA58 / RFU, C1orf63 / Fold change vs veh, C1orf63 / RFU, LRRFIP1 / Fold change vs veh, LRRFIP1 / RFU, NDUFAF7 / Fold change vs veh, NDUFAF7 / RFU, SLC12A2 / Fold change vs veh, SLC12A2 / RFU, IBTK / Fold change vs veh, IBTK / RFU, ESF1 / Fold change vs veh, ESF1 / Fold change vs veh, TMEM50B / RFU, TAOK1 / Fold change vs veh, TAOK1 / RFU, ACBD3 / Fold change vs veh, ACBD3 / RFU, TMA16 / Fold change vs veh, TMA16 / RFU, RWDD3 / Fold change vs veh, RWDD3 / RFU, BCAT1 / Fold change vs veh, BCAT1 / RFU, EDEM3 / Fold change vs veh, EDEM3 / RFU, TMEM33 / Fold change vs veh, TMEM33 / RFU, WDR75 / Fold change vs veh, WDR75 / RFU, AHCTF1 / Fold change vs veh, AHCTF1 / RFU, TFRC / Fold change vs veh, TFRC / RFU, ZDHHC17 / Fold change vs veh, ZDHHC17 / RFU, NOM1 / Fold change vs veh, NOM1 / RFU, ARL8B / Fold change vs veh, ARL8B / RFU, ZBTB11 / Fold change vs veh, ZBTB11 / RFU, TAMM41 / Fold change vs veh, TAMM41 / RFU, KIAA1704 /// LOC100996395 / Fold change vs veh, KIAA1704 /// LOC100996395 / RFU, ING1 / Fold change vs veh, ING1 / RFU, TRMT61B / Fold change vs veh, TRMT61B / RFU, FUBP3 / Fold change vs veh, FUBP3 / RFU, TP53 / Fold change vs veh, TP53 / RFU, TNKS2 / Fold change vs veh, TNKS2 / RFU, ZFP14 / Fold change vs veh, ZFP14 / RFU, ACTR2 / Fold change vs veh, ACTR2 / RFU, PPP3R1 / Fold change vs veh, PPP3R1 / RFU, PIK3R1 / Fold change vs veh, PIK3R1 / RFU, HNRNPA1 / Fold change vs veh, HNRNPA1 / RFU, RNF170 / Fold change vs veh, RNF170 / RFU, ZNF28 / Fold change vs veh, ZNF28 / RFU, RNGTT / Fold change vs veh, RNGTT / RFU, OGT / Fold change vs veh, OGT / RFU, BRD1 / Fold change vs veh, BRD1 / RFU, MARS / Fold change vs veh, MARS / RFU, ZNF655 / Fold change vs veh, ZNF655 / RFU, FAHD1 / Fold change vs veh, FAHD1 / RFU, BDP1 / Fold change vs veh, BDP1 / RFU, LRRCC1 / Fold change vs veh, LRRCC1 / RFU, ARID1A / Fold change vs veh, ARID1A / RFU, ZNF146 / Fold change vs veh, ZNF146 / RFU, ZNF330 / Fold change vs veh, ZNF330 / RFU, GPN3 / Fold change vs veh, GPN3 / RFU, C9orf123 / Fold change vs veh, C9orf123 / RFU, N4BP2L2 / Fold change vs veh, N4BP2L2 / RFU, ARFIP1 / Fold change vs veh, ARFIP1 / RFU, FAM179B / Fold change vs veh, FAM179B / RFU, BCL10 / Fold change vs veh, BCL10 / RFU, UHRF1BP1L / Fold change vs veh, UHRF1BP1L / RFU, BET1 / Fold change vs veh, BET1 / RFU, CNOT2 / Fold change vs veh, CNOT2 / RFU, ZNF268 / Fold change vs veh, ZNF268 / Fold change vs veh, ZNF507 / RFU, DGCR2 / Fold change vs veh, DGCR2 / RFU, WDSUB1 / Fold change vs veh, WDSUB1 / Fold change vs veh, HSP90B1 /// MIR3652 / RFU, ADSS / Fold change vs veh, ADSS / RFU, GK / Fold change vs veh, GK / RFU, ZNF148 / Fold change vs veh, ZNF148 / RFU, TAF9 / Fold change vs veh, TAF9 / RFU, SLC1A5 / Fold change vs veh, SLC1A5 / RFU, SLMO2 / Fold change vs veh, SLMO2 / RFU, ABCC4 / Fold change vs veh, ABCC4 / RFU, LOC101060439 /// RAP1B / Fold change vs veh, LOC101060439 /// RAP1B / RFU, RFX7 / Fold change vs veh, RFX7 / RFU, GTPBP10 / Fold change vs veh, GTPBP10 / RFU, CNEP1R1 / Fold change vs veh, CNEP1R1 / RFU, BIVM-ERCC5 /// ERCC5 / Fold change vs veh, BIVM-ERCC5 /// ERCC5 / RFU, ILF3 / Fold change vs veh, ILF3 / RFU 11762660_at / Fold change /veh 11762660_at / RFU VCAN (11757783_s_at) / Fold change /veh VCAN (11757783_s_at) / RFU DDX43 (11728927_at) / Fold change /veh DDX43 (11728927_at) / RFU KRT8 (11758188_x_at) / Fold change /veh KRT8 (11758188_x_at) / RFU NKD1 (11759106_at) / Fold change /veh NKD1 (11759106_at) / RFU SRD5A1 (11742802_a_at) / Fold change /veh SRD5A1 (11742802_a_at) / RFU TPSAB1 /// TPSB2 (11721975_s_at) / Fold change /veh TPSAB1 /// TPSB2 (11721975_s_at) / RFU GSTM3 (11746129_a_at) / Fold change /veh GSTM3 (11746129_a_at) / RFU IL23R (11737362_x_at) / Fold change /veh IL23R (11737362_x_at) / RFU TMEM51 (11727254_a_at) / Fold change /veh TMEM51 (11727254_a_at) / RFU PIWIL2 (11732686_x_at) / Fold change /veh PIWIL2 (11732686_x_at) / RFU ORM1 (11744905_x_at) / Fold change /veh ORM1 (11744905_x_at) / RFU CCDC152 (11743942_at) / Fold change /veh CCDC152 (11743942_at) / RFU ECM1 (11717891_a_at) / Fold change /veh ECM1 (11717891_a_at) / RFU IL23R (11748794_a_at) / Fold change /veh IL23R (11748794_a_at) / RFU TNFAIP8L3 (11732012_x_at) / Fold change /veh TNFAIP8L3 (11732012_x_at) / RFU MBOAT4 (11741988_at) / Fold change /veh MBOAT4 (11741988_at) / RFU 11764193_at / Fold change /veh 11764193_at / RFU TMEM53 (11763286_at) / Fold change /veh TMEM53 (11763286_at) / RFU MAGEB2 (11727129_at) / Fold change /veh MAGEB2 (11727129_at) / RFU TMEM200A (11744735_a_at) / Fold change /veh TMEM200A (11744735_a_at) / RFU CCDC152 (11751479_a_at) / Fold change /veh CCDC152 (11751479_a_at) / RFU FAM211A (11726209_a_at) / Fold change /veh FAM211A (11726209_a_at) / RFU RGS16 (11746705_a_at) / Fold change /veh RGS16 (11746705_a_at) / RFU VCAN (11755009_s_at) / Fold change /veh VCAN (11755009_s_at) / RFU RHOB (11743442_s_at) / Fold change /veh RHOB (11743442_s_at) / RFU RGS16 (11720943_a_at) / Fold change /veh RGS16 (11720943_a_at) / RFU RGS16 (11720944_at) / Fold change /veh RGS16 (11720944_at) / RFU, VPS4B / Fold change vs veh, VPS4B / RFU, CREB1 / Fold change vs veh, CREB1 / RFU, DNAJC13 / Fold change vs veh, DNAJC13 / RFU, GNAQ / Fold change vs veh, GNAQ / RFU, CDK5R1 / Fold change vs veh, CDK5R1 / RFU, ZRANB3 / Fold change vs veh, ZRANB3 / RFU, CUL4A / Fold change vs veh, CUL4A / RFU, CCNY / Fold change vs veh, CCNY / RFU, UFL1 / Fold change vs veh, UFL1 / RFU, COG3 / Fold change vs veh, COG3 / RFU, DIAPH2 / Fold change vs veh, DIAPH2 / RFU, SKA2 / Fold change vs veh, SKA2 / RFU, AFF3 / Fold change vs veh, AFF3 / RFU, LMF1 / Fold change vs veh, LMF1 / RFU, IPO11 / Fold change vs veh, IPO11 / RFU, DFFB / Fold change vs veh, DFFB / RFU, FOXP1 / Fold change vs veh, FOXP1 / RFU, CARD8 / Fold change vs veh, CARD8 / RFU, STRN3 / Fold change vs veh, STRN3 / RFU, ADK / Fold change vs veh, ADK / RFU, RASSF2 / Fold change vs veh, RASSF2 / RFU, WIPF1 / Fold change vs veh, WIPF1 / RFU, LARP1B / Fold change vs veh, LARP1B / RFU, RASA1 / Fold change vs veh, RASA1 / RFU, RB1 / Fold change vs veh, RB1 / RFU, PPFIA1 / Fold change vs veh, PPFIA1 / RFU, MAT2A / Fold change vs veh, MAT2A / RFU, CCT5 / Fold change vs veh, CCT5 / RFU, WDR92 / Fold change vs veh, WDR92 / RFU, CUX1 / Fold change vs veh, CUX1 / RFU, TTC7A / Fold change vs veh, TTC7A / RFU, TMEM135 / Fold change vs veh, TMEM135 / RFU, DEPTOR / Fold change vs veh, DEPTOR / RFU, CPM / Fold change vs veh, CPM / RFU, DNAJB6 / Fold change vs veh, DNAJB6 / RFU, CACNA2D3 / Fold change vs veh, CACNA2D3 / RFU, DTX4 / Fold change vs veh, DTX4 / RFU, TFCP2 / Fold change vs veh, TFCP2 / RFU, GMCL1 /// GMCL1P1 / Fold change vs veh, GMCL1 /// GMCL1P1 / RFU, AEBP2 / Fold change vs veh, AEBP2 / RFU, SNHG1 /// SNORD22 /// SNORD25 /// SNORD26 /// SNORD27 /// SNORD28 /// SNORD29 /// SNORD31 / Fold change vs veh, SNHG1 /// SNORD22 /// SNORD25 /// SNORD26 /// SNORD27 /// SNORD28 /// SNORD29 /// SNORD31 / Fold change (Aza/veh), C12orf56 (ProbeSet 11735607_a_at) / Fold change (ACY-1035/veh), C12orf56 (ProbeSet 11735607_a_at) / Fold change (Aza/veh), FGFR1OP (ProbeSet 11751329_s_at) / Fold change (ACY-1035/veh), FGFR1OP (ProbeSet 11751329_s_at) / Fold change (Aza/veh), VPS36 (ProbeSet 11739960_a_at) / Fold change (ACY-1035/veh), VPS36 (ProbeSet 11739960_a_at) / RFU SYPL1 (11715823_x_at) / Fold change /veh SYPL1 (11715823_x_at) / RFU IGFBP7 (11715501_s_at) / Fold change /veh IGFBP7 (11715501_s_at) / RFU REEP3 (11722064_at) / Fold change /veh REEP3 (11722064_at) / RFU IGLL1 (11728026_x_at) / Fold change /veh IGLL1 (11728026_x_at): dose or concentration left out as unconfirmed
Conditions: MV-4-11 cells, 48 hours

For `Nc1ncn([C@@H]2O[C@H](CO)[C@@H](O)[C@H]2O)c(=O)n1` [azacitidine], the “Fold change /veh ORM1 (11744905_x_at)” value was 1.26.

Reference: PMC5218480 (PLoS ONE, 2017)
